One assay concerns H1N1 A/PR/8/1934. The note with it: A/PR/8/1934, 48 h, 1 μM.
For assay [1], the system named is H1N1 A1/Malaysia/302/1954. To be noted: A1/Malaysia/302/1954, 48 h, 500 μM.
The test system of another assay is H9N2 A/Iran/16/2000. To be noted: 48 h, 500 μM.
The test system of a further assay is H3N8 A/Miami/2/63. The note with it: A/Miami/2/63, 48 h, 500 μM.

Each structure is given as a SMILES string. Bridge positions count the residues as written; N and C are the ends. Square brackets hold non-standard residues; d marks the D form. Peptide text beside a SMILES is read from it. Bounds are passed on as bounds.

Regarding `CC[C@@H](C)[C@H]1NC(=O)[C@@H](Cc2ccccc2)NC(=O)[C@@H]([C@H](C)O)NC(=O)[C@@H](Cc2ccccc2)NC(=O)[C@@H](Cc2c[nH]c3ccccc23)NC(=O)[C@@H](Cc2c[nH]c3ccccc23)NC(=O)[C@H](NC(=O)[C@H](CCCCN)NC(=O)[C@H](CCCCN)NC(=O)[C@H](CCCNC(=N)N)NC(=O)[C@@H](N)CCCNC(=N)N)CSSC[C@H](C(=O)O)NC(=O)[C@@H]([C@H](C)O)NC1=O` [PSP VI A17, H-RRKKcwwftfitc-OH] (H-RRKK[dC][dW][dW][dF][dT][dF][dI][dT][dC]-OH; disulfide 5-13), the “% Inhibition” value in the assay with H1N1 A/PR/8/1934 was 27%.

As for `CC[C@@H](C)[C@H]1NC(=O)[C@@H](Cc2ccccc2)NC(=O)[C@@H]([C@H](C)O)NC(=O)[C@@H](Cc2ccccc2)NC(=O)[C@@H](Cc2c[nH]c3ccccc23)NC(=O)[C@@H](Cc2c[nH]c3ccccc23)NC(=O)[C@H](NC(=O)[C@H](CCCCN)NC(=O)[C@H](CCCCN)NC(=O)[C@H](CCCNC(=N)N)NC(=O)[C@@H](N)CCCNC(=N)N)CSSC[C@H](C(=O)O)NC(=O)[C@@H](Cc2c[nH]c3ccccc23)NC1=O` [PSP VI A19, H-RRKKcwwftfiwc-OH] (H-RRKK[dC][dW][dW][dF][dT][dF][dI][dW][dC]-OH; disulfide 5-13), the “% Inhibition” value in the assay with H1N1 A/PR/8/1934 worked out at 78%.

Turning to `CC[C@@H](C)[C@H]1NC(=O)[C@@H](Cc2ccccc2)NC(=O)[C@@H]([C@H](C)O)NC(=O)[C@@H](Cc2ccccc2)NC(=O)[C@@H](Cc2c[nH]c3ccccc23)NC(=O)[C@H]2CCCN2C(=O)[C@H](NC(=O)[C@H](CCCCN)NC(=O)[C@H](CCCCN)NC(=O)[C@H](CCCNC(=N)N)NC(=O)[C@@H](N)CCCNC(=N)N)CSSC[C@H](C(=O)O)NC(=O)[C@@H](CC(N)=O)NC1=O` [PSP V A13, H-RRKKcpwftfinc-OH] (H-RRKK[dC][dP][dW][dF][dT][dF][dI][dN][dC]-OH; disulfide 5-13), the “% Inhibition” value with H1N1 A/PR/8/1934 is listed as less than 20%.

Regarding `CC[C@@H](C)[C@H]1NC(=O)[C@@H](Cc2ccccc2)NC(=O)[C@@H]([C@H](C)O)NC(=O)[C@@H](Cc2ccccc2)NC(=O)[C@@H](Cc2c[nH]c3ccccc23)NC(=O)[C@@H](CCC(=O)O)NC(=O)[C@H](NC(=O)[C@H](CCCCN)NC(=O)[C@H](CCCCN)NC(=O)[C@H](CCCNC(=N)N)NC(=O)[C@@H](N)CCCNC(=N)N)CSSC[C@H](C(=O)O)NC(=O)[C@@H](CC(N)=O)NC1=O` [PSP V A4, H-RRKKcewftfinc-OH] (H-RRKK[dC][dE][dW][dF][dT][dF][dI][dN][dC]-OH; disulfide 5-13), the “% Inhibition” value in the assay with H1N1 A/PR/8/1934 turned out to be 27%.

Take `CC[C@@H](C)[C@H]1NC(=O)[C@@H](Cc2ccccc2)NC(=O)[C@@H]([C@H](C)O)NC(=O)[C@@H](Cc2ccccc2)NC(=O)[C@@H](Cc2c[nH]c3ccccc23)NC(=O)[C@@H](CCCNC(=N)N)NC(=O)[C@H](NC(=O)[C@H](CCCCN)NC(=O)[C@H](CCCCN)NC(=O)[C@H](CCCNC(=N)N)NC(=O)[C@@H](N)CCCNC(=N)N)CSSC[C@H](C(=O)O)NC(=O)[C@@H](CC(N)=O)NC1=O` [PSP V A15, H-RRKKcrwftfinc-OH] (H-RRKK[dC][dR][dW][dF][dT][dF][dI][dN][dC]-OH; disulfide 5-13): in the assay on H1N1 A/PR/8/1934, the “% Inhibition” value was 87%.

Consider `CC[C@@H](C)[C@H]1NC(=O)[C@@H](Cc2ccccc2)NC(=O)[C@@H]([C@H](C)O)NC(=O)[C@@H](Cc2ccccc2)NC(=O)[C@@H](Cc2c[nH]c3ccccc23)NC(=O)[C@@H]([C@H](C)CC)NC(=O)[C@H](NC(=O)[C@H](CCCCN)NC(=O)[C@H](CCCCN)NC(=O)[C@H](CCCNC(=N)N)NC(=O)[C@@H](N)CCCNC(=N)N)CSSC[C@H](C(=O)O)NC(=O)[C@@H](CC(N)=O)NC1=O` [PSP V A8, H-RRKKciwftfinc-OH] (H-RRKK[dC][dI][dW][dF][dT][dF][dI][dN][dC]-OH; disulfide 5-13), for which the “% Inhibition” value with H1N1 A/PR/8/1934 was determined as 20%.

Turning to `CC[C@@H](C)[C@H]1NC(=O)[C@@H](Cc2ccccc2)NC(=O)[C@@H](CCCNC(=N)N)NC(=O)[C@@H](CO)NC(=O)[C@@H](CCC(N)=O)NC(=O)[C@@H]([C@H](C)O)NC(=O)[C@H](NC(=O)[C@@H](CCCCN)NC(=O)[C@@H](CCCCN)NC(=O)[C@@H](CCCNC(=N)N)NC(=O)[C@H](N)CCCNC(=N)N)CSSC[C@H](C(=O)O)NC(=O)[C@@H](CC(N)=O)NC1=O` [PSP II A14, H-rrkkctqsrfinc-OH] (H-[dR][dR][dK][dK][dC][dT][dQ][dS][dR][dF][dI][dN][dC]-OH; disulfide 5-13), the “% inhibition H1N1” value in assay [1] is listed as 73%. In the assay on H9N2 A/Iran/16/2000, the “% inhibition H9N2” value came to 80%. Further, the “% inhibition H3N8” value in the assay on H3N8 A/Miami/2/63 stood at 85%.

For `C[C@H](O)[C@H]1NC(=O)[C@H](N)CSSC[C@H](C(=O)O)NC(=O)[C@@H](CC(N)=O)NC(=O)[C@@H](CCC(N)=O)NC(=O)[C@@H](Cc2ccccc2)NC(=O)[C@@H](CCCNC(=N)N)NC(=O)[C@@H](CO)NC(=O)[C@@H](CCCCN)NC1=O` [PSP 14, H-ctksrfqnc-OH] (H-[dC][dT][dK][dS][dR][dF][dQ][dN][dC]-OH; disulfide 1-9), in assay [1], the “% inhibition H1N1” value worked out at 23.1%. The “% inhibition H9N2” value in the assay with H9N2 A/Iran/16/2000 is 18.2%. Further, the “% inhibition H3N8” value in the assay with H3N8 A/Miami/2/63 worked out at 62.9%.

As to `C[C@H](O)[C@H]1NC(=O)[C@H](N)CSSC[C@H](C(=O)O)NC(=O)[C@@H](CC(N)=O)NC(=O)[C@@H](CCCCN)NC(=O)[C@@H](Cc2ccccc2)NC(=O)[C@@H](CCCNC(=N)N)NC(=O)[C@@H](CO)NC(=O)[C@@H](CCCCN)NC1=O` [PSP 9, H-ctksrfknc-OH] (H-[dC][dT][dK][dS][dR][dF][dK][dN][dC]-OH; disulfide 1-9), the “% inhibition H1N1” value in assay [1] is given as 17.6%. Besides, the “% inhibition H9N2” value with H9N2 A/Iran/16/2000 was determined as 31.8%. For the same compound, the “% inhibition H3N8” value in the assay on H3N8 A/Miami/2/63 is reported as 62.9%.

With `C[C@H](O)[C@H]1NC(=O)[C@H](N)CSSC[C@H](C(=O)O)NC(=O)[C@@H](CC(N)=O)NC(=O)[C@@H](CC(N)=O)NC(=O)[C@@H](Cc2ccccc2)NC(=O)[C@@H](CCCNC(=N)N)NC(=O)[C@@H](CO)NC(=O)[C@@H](CCCCN)NC1=O` [PSP 12, H-ctksrfnnc-OH] (H-[dC][dT][dK][dS][dR][dF][dN][dN][dC]-OH; disulfide 1-9), in assay [1], the “% inhibition H1N1” value was 32.7%. In addition, the “% inhibition H9N2” value with H9N2 A/Iran/16/2000 was 27.3%. The “% inhibition H3N8” value in the assay with H3N8 A/Miami/2/63 is listed as 70.1%.

For `CC[C@@H](C)[C@H]1NC(=O)[C@@H](Cc2ccccc2)NC(=O)[C@@H](CCCNC(=N)N)NC(=O)[C@@H](CO)NC(=O)[C@@H](CCSC)NC(=O)[C@@H]([C@H](C)O)NC(=O)[C@H](NC(=O)[C@@H](CCCCN)NC(=O)[C@@H](CCCCN)NC(=O)[C@@H](CCCNC(=N)N)NC(=O)[C@H](N)CCCNC(=N)N)CSSC[C@H](C(=O)O)NC(=O)[C@@H](CC(N)=O)NC1=O` [PSP II A11, H-rrkkctmsrfinc-OH] (H-[dR][dR][dK][dK][dC][dT][dM][dS][dR][dF][dI][dN][dC]-OH; disulfide 5-13), the “% inhibition H1N1” value in assay [1] was 65.4%. Also, the “% inhibition H9N2” value in the assay on H9N2 A/Iran/16/2000 came out at 40%. The “% inhibition H3N8” value in the assay with H3N8 A/Miami/2/63 amounted to 76.5%.

With `CC[C@@H](C)[C@H]1NC(=O)[C@@H](Cc2ccccc2)NC(=O)[C@@H](CCCNC(=N)N)NC(=O)[C@@H](CO)NC(=O)[C@@H](CC(C)C)NC(=O)[C@@H]([C@H](C)O)NC(=O)[C@H](NC(=O)[C@@H](CCCCN)NC(=O)[C@@H](CCCCN)NC(=O)[C@@H](CCCNC(=N)N)NC(=O)[C@H](N)CCCNC(=N)N)CSSC[C@H](C(=O)O)NC(=O)[C@@H](CC(N)=O)NC1=O` [PSP II A10, H-rrkkctisrfinc-OH] (H-[dR][dR][dK][dK][dC][dT][dL][dS][dR][dF][dI][dN][dC]-OH; disulfide 5-13), the “% inhibition H1N1” value in assay [1] came to 63.5%. In the assay on H9N2 A/Iran/16/2000, the “% inhibition H9N2” value is recorded as 40%. Also, the “% inhibition H3N8” value with H3N8 A/Miami/2/63 stood at 88.9%.

For `CC[C@@H](C)[C@H]1NC(=O)[C@@H](Cc2ccccc2)NC(=O)[C@@H](CCCNC(=N)N)NC(=O)[C@@H](CO)NC(=O)[C@H]2CCCN2C(=O)[C@@H]([C@H](C)O)NC(=O)[C@H](NC(=O)[C@@H](CCCCN)NC(=O)[C@@H](CCCCN)NC(=O)[C@@H](CCCNC(=N)N)NC(=O)[C@H](N)CCCNC(=N)N)CSSC[C@H](C(=O)O)NC(=O)[C@@H](CC(N)=O)NC1=O` [PSP II A13, H-rrkkctpsrfinc-OH] (H-[dR][dR][dK][dK][dC][dT][dP][dS][dR][dF][dI][dN][dC]-OH; disulfide 5-13), in assay [1], the “% inhibition H1N1” value worked out at 86.5%. In addition, in the assay with H9N2 A/Iran/16/2000, the “% inhibition H9N2” value is 70%. Further, the “% inhibition H3N8” value in the assay on H3N8 A/Miami/2/63 was found to be 97%.

For `CC[C@@H](C)[C@H]1NC(=O)[C@@H](Cc2ccccc2)NC(=O)[C@@H](CCCNC(=N)N)NC(=O)[C@@H](CO)NC(=O)[C@@H](C(C)C)NC(=O)[C@@H]([C@H](C)O)NC(=O)[C@H](NC(=O)[C@@H](CCCCN)NC(=O)[C@@H](CCCCN)NC(=O)[C@@H](CCCNC(=N)N)NC(=O)[C@H](N)CCCNC(=N)N)CSSC[C@H](C(=O)O)NC(=O)[C@@H](CC(N)=O)NC1=O` [PSP II A18, H-rrkkctvsrfinc-OH] (H-[dR][dR][dK][dK][dC][dT][dV][dS][dR][dF][dI][dN][dC]-OH; disulfide 5-13), the “% inhibition H1N1” value in assay [1] is 42.3%. Besides, the “% inhibition H9N2” value in the assay on H9N2 A/Iran/16/2000 is listed as 70%. Moreover, the “% inhibition H3N8” value in the assay with H3N8 A/Miami/2/63 was 47%.

For the compound `CC[C@@H](C)[C@H]1NC(=O)[C@@H](Cc2ccccc2)NC(=O)[C@@H](CCCNC(=N)N)NC(=O)[C@@H](CO)NC(=O)[C@@H](CCC(=O)O)NC(=O)[C@@H]([C@H](C)O)NC(=O)[C@H](NC(=O)[C@@H](CCCCN)NC(=O)[C@@H](CCCCN)NC(=O)[C@@H](CCCNC(=N)N)NC(=O)[C@H](N)CCCNC(=N)N)CSSC[C@H](C(=O)O)NC(=O)[C@@H](CC(N)=O)NC1=O` [PSP II A4, H-rrkkctesrfinc-OH] (H-[dR][dR][dK][dK][dC][dT][dE][dS][dR][dF][dI][dN][dC]-OH; disulfide 5-13), the “% inhibition H1N1” value in assay [1] is 36.2%. For the same compound, the “% inhibition H9N2” value with H9N2 A/Iran/16/2000 was found to be 60%. The “% inhibition H3N8” value in the assay on H3N8 A/Miami/2/63 is recorded as 74.1%.

By % Inhibition is commonly meant the drop in the measured response relative to a control, in per cent. Higher therefore signals strong suppression.

(Values after patent US10538554B2, “Peptides and uses therefor as antiviral agents” (priority 2015, dated 2020).)
